ChEMBL document CHEMBL5113513, “Selective Inhibitors of Medium-Size S1' Pocket Matrix Metalloproteinases: A Stepping Stone of Future Drug Discovery” (J Med Chem, 2022)
Converted amounts (≈) assume the structure as drawn. Blank lines part the entries; values can stand above or below the compound they belong to.

Columns and labels:
Interstitial collagenase [1] = target: T1, Interstitial collagenase (Homo sapiens, UniProt P03956); test: Inhibition of human MMP-1 using Mca-Pro-Leu-Gly-Leu-Dpa-Ala-Arg-NH2 as substrate preincubated for 1 hr followed by susbstrate addition by fluorescent analysis
T1 sequence (P03956 whole entry): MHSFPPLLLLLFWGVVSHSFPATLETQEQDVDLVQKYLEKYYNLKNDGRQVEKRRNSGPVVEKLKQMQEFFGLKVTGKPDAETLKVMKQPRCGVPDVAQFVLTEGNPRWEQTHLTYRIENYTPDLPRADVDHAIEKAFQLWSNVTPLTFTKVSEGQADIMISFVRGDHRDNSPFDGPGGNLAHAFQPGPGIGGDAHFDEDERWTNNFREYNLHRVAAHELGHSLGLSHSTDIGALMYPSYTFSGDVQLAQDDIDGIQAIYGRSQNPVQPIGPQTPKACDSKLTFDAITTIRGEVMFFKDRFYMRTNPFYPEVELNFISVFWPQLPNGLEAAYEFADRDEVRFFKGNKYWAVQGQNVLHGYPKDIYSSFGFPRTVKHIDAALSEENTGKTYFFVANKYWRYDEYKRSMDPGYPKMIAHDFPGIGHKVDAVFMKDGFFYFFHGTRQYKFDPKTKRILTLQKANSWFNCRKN

[2] = target: T2, Matrix metalloproteinase-14 (Homo sapiens, UniProt P50281); test: Inhibition of human MMP-14 using Mca-Pro-Leu-Gly-Leu-Dpa-Ala-Arg-NH2 as substrate preincubated for 1 hr followed by susbstrate addition by fluorescent analysis
[3] = target: T3, 72 kDa type IV collagenase (Homo sapiens, UniProt P08253); test: Inhibition of human MMP-2 using Mca-Pro-Leu-Gly-Leu-Dpa-Ala-Arg-NH2 as substrate preincubated for 1 hr followed by susbstrate addition by fluorescent analysis
T3 sequence (P08253 whole entry): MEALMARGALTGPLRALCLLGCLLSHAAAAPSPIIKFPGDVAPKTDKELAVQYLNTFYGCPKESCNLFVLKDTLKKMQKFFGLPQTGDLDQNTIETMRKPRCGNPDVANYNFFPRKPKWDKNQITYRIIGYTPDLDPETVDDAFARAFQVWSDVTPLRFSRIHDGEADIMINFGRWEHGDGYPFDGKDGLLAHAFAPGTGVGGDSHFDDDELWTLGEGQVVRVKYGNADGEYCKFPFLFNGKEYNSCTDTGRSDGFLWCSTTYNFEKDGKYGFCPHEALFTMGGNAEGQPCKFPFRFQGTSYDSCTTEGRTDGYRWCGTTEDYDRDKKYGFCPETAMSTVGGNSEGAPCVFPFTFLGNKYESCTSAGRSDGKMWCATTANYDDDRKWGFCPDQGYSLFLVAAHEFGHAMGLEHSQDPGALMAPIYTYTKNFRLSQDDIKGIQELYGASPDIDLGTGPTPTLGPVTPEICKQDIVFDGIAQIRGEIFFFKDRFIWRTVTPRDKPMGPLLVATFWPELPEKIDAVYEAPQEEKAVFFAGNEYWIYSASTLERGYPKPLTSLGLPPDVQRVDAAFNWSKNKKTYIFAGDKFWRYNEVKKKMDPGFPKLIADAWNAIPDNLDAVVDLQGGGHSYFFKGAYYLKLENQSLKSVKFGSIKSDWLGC

Neutrophil collagenase [4] = target: T4, Neutrophil collagenase (Homo sapiens, UniProt P22894); test: Inhibition of human MMP-8 using Mca-Pro-Leu-Gly-Leu-Dpa-Ala-Arg-NH2 as substrate preincubated for 1 hr followed by susbstrate addition by fluorescent analysis
T4 sequence (P22894 whole entry): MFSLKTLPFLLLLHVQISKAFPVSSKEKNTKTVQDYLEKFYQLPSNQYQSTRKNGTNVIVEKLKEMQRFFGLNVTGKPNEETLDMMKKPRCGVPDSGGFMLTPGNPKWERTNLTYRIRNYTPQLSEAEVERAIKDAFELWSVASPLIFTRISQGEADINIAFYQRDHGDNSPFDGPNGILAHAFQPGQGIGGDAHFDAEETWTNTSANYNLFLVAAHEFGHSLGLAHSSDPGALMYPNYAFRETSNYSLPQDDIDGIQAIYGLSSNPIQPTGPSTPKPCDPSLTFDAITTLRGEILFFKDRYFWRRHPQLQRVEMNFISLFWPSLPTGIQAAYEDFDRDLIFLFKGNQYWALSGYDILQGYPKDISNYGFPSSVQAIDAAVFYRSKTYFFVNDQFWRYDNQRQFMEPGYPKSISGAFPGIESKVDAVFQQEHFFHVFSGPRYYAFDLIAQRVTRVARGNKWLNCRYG

Interstitial collagenase [5] = target: T1, Interstitial collagenase; test: Inhibition of recombinant human MMP-1 for 3 hrs using colorimetric substrate by ELISA
Neutrophil collagenase [6] = target: T4, Neutrophil collagenase; test: Inhibition of recombinant human MMP-8 for 3 hrs using colorimetric substrate by ELISA
[7] = target: T3, 72 kDa type IV collagenase; test: Inhibition of recombinant human MMP-2 for 3 hrs using colorimetric substrate by ELISA
[8] = target: T5, Macrophage metalloelastase (Homo sapiens, UniProt P39900); test: Inhibition of recombinant human MMP-12 using peptide substrate by ELISA
T5 sequence (P39900 whole entry): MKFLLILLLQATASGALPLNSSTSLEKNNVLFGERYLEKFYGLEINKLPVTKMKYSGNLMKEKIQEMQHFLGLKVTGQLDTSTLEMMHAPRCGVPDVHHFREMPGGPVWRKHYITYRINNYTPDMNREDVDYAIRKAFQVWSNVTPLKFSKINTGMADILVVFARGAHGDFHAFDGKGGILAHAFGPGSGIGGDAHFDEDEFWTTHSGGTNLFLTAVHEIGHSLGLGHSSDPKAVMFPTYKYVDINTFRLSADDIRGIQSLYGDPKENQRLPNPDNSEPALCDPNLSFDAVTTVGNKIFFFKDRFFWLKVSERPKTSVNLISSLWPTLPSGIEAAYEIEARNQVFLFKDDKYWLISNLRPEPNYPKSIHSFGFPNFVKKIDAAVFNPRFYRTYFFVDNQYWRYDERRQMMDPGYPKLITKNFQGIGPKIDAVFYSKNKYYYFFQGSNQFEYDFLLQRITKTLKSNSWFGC

[9] = AUC in Sprague-Dawley rats at 33 mg/kg, sc; type: ADME, organism-based; set-up: dose 33 mg/kg, route sc; details: rat, in vivo
[10] = Half life in Sprague-Dawley rat at 33 mg/kg, po; type: ADME, organism-based; details: in vivo
[11] = Half life in Sprague-Dawley rats at 33 mg/kg, sc; type: ADME, organism-based; details: rat, in vivo
[12] = AUC in Sprague-Dawley rats at 33 mg/kg, po; type: ADME, organism-based; set-up: dose 33 mg/kg, route po; details: rat, in vivo
[13] = target: T3, 72 kDa type IV collagenase; test: Inhibition of recombinant human MMP-2 using peptide substrate by ELISA
[14] = target: T6, Matrix metalloproteinase-9 (Homo sapiens, UniProt P14780); test: Inhibition of recombinant human MMP-9 using peptide substrate by ELISA
T6 sequence (P14780 whole entry): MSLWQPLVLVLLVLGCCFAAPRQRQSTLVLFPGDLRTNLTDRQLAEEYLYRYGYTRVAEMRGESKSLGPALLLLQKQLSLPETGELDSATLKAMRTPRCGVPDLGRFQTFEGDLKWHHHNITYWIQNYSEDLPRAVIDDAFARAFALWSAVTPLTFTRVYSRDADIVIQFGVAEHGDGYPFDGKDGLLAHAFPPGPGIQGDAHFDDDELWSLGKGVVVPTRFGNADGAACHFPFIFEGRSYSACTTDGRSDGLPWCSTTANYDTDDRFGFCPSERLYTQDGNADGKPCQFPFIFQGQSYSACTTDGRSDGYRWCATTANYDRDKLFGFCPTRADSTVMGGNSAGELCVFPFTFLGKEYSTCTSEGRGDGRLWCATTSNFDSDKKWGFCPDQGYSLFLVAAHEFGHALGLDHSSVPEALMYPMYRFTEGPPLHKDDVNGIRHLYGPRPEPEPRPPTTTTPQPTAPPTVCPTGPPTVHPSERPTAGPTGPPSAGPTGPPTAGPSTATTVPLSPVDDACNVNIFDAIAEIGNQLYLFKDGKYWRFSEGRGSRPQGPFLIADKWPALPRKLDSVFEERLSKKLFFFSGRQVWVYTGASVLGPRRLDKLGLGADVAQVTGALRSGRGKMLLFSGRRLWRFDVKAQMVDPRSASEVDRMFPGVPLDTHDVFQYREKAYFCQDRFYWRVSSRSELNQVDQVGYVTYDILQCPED

Collagenase 3 [15] = target: T7, Collagenase 3 (Homo sapiens, UniProt P45452); test: Inhibition of recombinant human MMP-13 using peptide substrate by ELISA
[16] = Clearance in Sprague-Dawley rats at 33 mg/kg, sc; type: ADME, organism-based; details: rat, in vivo
[17] = Inhibition of recombinant human TACE using peptide substrate by ELISA
[18] = target: T5, Macrophage metalloelastase; test: Inhibition of recombinant human MMP-12 by ELISA
Matrilysin = target: T8, Matrilysin (Homo sapiens, UniProt P09237); test: Inhibition of MMP-7 (unknown origin)
T8 sequence (P09237 whole entry): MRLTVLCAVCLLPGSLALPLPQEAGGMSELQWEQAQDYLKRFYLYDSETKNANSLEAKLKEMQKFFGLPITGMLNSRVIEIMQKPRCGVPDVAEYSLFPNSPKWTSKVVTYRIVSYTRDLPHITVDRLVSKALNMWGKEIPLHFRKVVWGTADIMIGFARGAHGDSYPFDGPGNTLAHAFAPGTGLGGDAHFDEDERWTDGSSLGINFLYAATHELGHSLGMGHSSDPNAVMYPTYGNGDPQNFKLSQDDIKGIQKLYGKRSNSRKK

[19] = target: T5, Macrophage metalloelastase; test: Inhibition of MMP-12 (unknown origin)
Collagenase 3 [20] = target: T7, Collagenase 3
Description: Inhibition of MMP-13 (unknown origin)

[21] = Aqueous solubility of compound by UV spectroscopy; type: physicochemical
Neutrophil collagenase [22] = target: T4, Neutrophil collagenase; test: Inhibition of MMP-8 (unknown origin)
Stromelysin-1 = Stromelysin-1 (Homo sapiens, UniProt P08254); test: Inhibition of MMP-3 (unknown origin)
Stromelysin-1, sequence (P08254 whole entry): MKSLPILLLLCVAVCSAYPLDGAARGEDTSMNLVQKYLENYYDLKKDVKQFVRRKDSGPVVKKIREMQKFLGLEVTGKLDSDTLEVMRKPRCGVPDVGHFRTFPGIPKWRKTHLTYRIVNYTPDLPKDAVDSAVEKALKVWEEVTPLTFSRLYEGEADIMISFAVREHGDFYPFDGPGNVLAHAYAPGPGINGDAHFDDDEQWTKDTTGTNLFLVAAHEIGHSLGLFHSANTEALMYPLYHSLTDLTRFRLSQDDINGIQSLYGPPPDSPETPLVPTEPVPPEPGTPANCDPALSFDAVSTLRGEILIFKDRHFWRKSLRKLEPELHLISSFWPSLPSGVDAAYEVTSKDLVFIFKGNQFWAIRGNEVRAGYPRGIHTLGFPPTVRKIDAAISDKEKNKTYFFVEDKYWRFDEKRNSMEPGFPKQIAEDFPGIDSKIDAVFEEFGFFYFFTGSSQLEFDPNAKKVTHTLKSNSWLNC

Interstitial collagenase [23] = target: T1, Interstitial collagenase; test: Inhibition of MMP-1 (unknown origin)
[24] = target: T2, Matrix metalloproteinase-14; test: Inhibition of MMP-14 (unknown origin)
[25] = target: T6, Matrix metalloproteinase-9; test: Inhibition of MMP-9 (unknown origin) catalytic activity using Ac-PLG-[2-mercapto-4-methylpentanoyl]-LG-OC2H5 as substrate and measured upto 30 mins by microplate reader analysis
HT-1080 = test: Inhibition of cell invasion in human HT-1080 for 22 hrs by CyQuantGR dye based fluorometric analysis; type: functional
Stromelysin-2 = Stromelysin-2 (Homo sapiens, UniProt P09238); test: Inhibition of MMP-10 (unknown origin)
Stromelysin-2, sequence (P09238 whole entry): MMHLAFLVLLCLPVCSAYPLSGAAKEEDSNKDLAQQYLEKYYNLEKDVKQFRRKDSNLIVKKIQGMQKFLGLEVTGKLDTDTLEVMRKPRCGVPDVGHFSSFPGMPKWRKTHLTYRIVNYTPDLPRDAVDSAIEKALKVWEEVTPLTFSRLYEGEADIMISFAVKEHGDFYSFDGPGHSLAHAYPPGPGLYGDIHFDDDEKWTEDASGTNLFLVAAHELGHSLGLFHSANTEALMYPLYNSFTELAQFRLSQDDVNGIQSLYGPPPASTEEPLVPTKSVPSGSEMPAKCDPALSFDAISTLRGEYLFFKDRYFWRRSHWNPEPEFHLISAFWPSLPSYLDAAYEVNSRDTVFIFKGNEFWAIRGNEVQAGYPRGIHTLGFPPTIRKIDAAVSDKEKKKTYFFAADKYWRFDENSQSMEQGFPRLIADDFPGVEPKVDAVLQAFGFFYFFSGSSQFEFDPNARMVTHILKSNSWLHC

[26] = target: T3, 72 kDa type IV collagenase; test: Inhibition of MMP-2 (unknown origin) catalytic activity using Ac-PLG-[2-mercapto-4-methylpentanoyl]-LG-OC2H5 as substrate and measured upto 30 mins by microplate reader analysis
Interstitial collagenase [27] = target: T1, Interstitial collagenase; test: Inhibition of MMP-1 (unknown origin) expressed in Escherichia coli BL21(DE3) and measured for 2 mins by enzymatic assay

IC50 (Interstitial collagenase [1]): > 50000 nM | IC50 [2]: > 2000 nM | IC50 [3]: > 2000 nM | IC50 (Neutrophil collagenase [4]): > 2000 nM
SMILES: Cc1cc(=O)c(O)c(C(=O)NCc2ccc(-c3ccc(-c4ccccc4)cc3)cc2)o1

IC50 (Matrilysin): 825 nM | IC50 [19]: 4.8 nM | IC50 (Collagenase 3 [20]): 3.2 nM | solubility [21]: 996 µg/mL (≈ 2110 µM) | IC50 (Neutrophil collagenase [22]): 202 nM | IC50 (Stromelysin-1): 50.5 nM | IC50 (Interstitial collagenase [23]): > 1000 nM | IC50 [24]: 286 nM | IC50 [25]: 43.9 nM | IC50 (Stromelysin-2): 44.5 nM | IC50 [26]: 1.7 nM
SMILES: CN(C)c1ccc(-c2cn(-c3ccc(S(=O)(=O)C4(C(=O)NO)CCOCC4)cc3)nn2)cc1
inhibition (INH) (HT-1080): 37%

IC50 (Interstitial collagenase [27]): 50000 nM
SMILES: O=C(NO)C1c2ccc(O)cc2CCN1S(=O)(=O)c1cc(Cl)ccc1Cl (stereo unspecified)

The remaining lines, values behind:

SMILES: CC(C)CNC(=O)P(=O)(O)O
IC50 (Interstitial collagenase [5]): 40000 nM | IC50 (Neutrophil collagenase [6]): 1000 nM | IC50 [7]: > 100000 nM

SMILES: O=C(NCCCCCCNS(=O)(=O)c1ccc(Oc2ccccc2)cc1)P(=O)(O)O
IC50 [8]: > 100 nM | AUC [9]: 50500 ng·h/mL | half-life [10]: 5.8 h | half-life [11]: 6.6 h | AUC [12]: 3300 ng·h/mL | IC50 [13]: 4 nM | IC50 [14]: > 100 nM | IC50 (Collagenase 3 [15]): > 100 nM | CL/F [16]: 7.1 mL/min/kg | IC50 [17]: 20 nM

SMILES: CC(C)CC(C(=O)NC(c1noc(Sc2ccccc2)n1)C(C)(C)C)C(O)C(=O)NO (stereo unspecified)
IC50 [18]: 20 nM
